Bounds are passed on as bounds.

Assay type in all cases: cell-based
One experiment concerns the target T1, M2 muscarinic receptor (Homo sapiens, UniProt P08172).
T1 construct: expressed in transfected cells; host or cells: CHO (M2-CHO)
T1 sequence (P08172 1-466): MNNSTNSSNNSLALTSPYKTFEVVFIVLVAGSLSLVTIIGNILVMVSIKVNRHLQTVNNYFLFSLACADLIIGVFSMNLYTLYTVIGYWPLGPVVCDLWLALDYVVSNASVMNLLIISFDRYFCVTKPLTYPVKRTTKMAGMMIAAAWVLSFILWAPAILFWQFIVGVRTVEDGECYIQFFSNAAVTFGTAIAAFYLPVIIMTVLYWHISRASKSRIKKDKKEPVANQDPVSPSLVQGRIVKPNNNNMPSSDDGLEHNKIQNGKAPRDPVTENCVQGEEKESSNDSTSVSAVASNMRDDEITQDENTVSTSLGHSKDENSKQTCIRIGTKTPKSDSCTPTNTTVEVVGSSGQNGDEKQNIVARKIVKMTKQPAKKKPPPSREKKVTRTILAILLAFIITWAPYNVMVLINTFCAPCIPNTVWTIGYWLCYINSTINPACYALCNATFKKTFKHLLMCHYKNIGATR
In words: Functional mobilization of intracellular calcium (FLIPR), M2-CHO cells. To be noted: for Emax: 100% efficacy = maximum response obtained with the Carbachol control; for M2 Activity: M2-CHO cells, calcium mobilization (FLIPR). An outline of the steps:
(§1)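 CHO cells expressing human M1–M4 receptors loaded with Fluo-3 AM or Calcium 3 dye (1 mM probenecid, pH 7.4); 0.5% DMSO final. Agonist mode: compound added directly; antagonist mode: 15 min pre-incubation or co-application, then carbachol at EC80. Fluorescence read 60 s on FLIPR; efficacy relative to carbachol maximum.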
On the technique in general: Calcium assays in cells follow changes in intracellular calcium, usually with a dye or a luminescent sensor.

The next experiment deals with T2, M3 muscarinic receptor (Homo sapiens, UniProt P20309).
T2 construct: expressed in transfected cells; host or cells: CHO (M3-CHO)
T2 sequence (P20309 whole entry): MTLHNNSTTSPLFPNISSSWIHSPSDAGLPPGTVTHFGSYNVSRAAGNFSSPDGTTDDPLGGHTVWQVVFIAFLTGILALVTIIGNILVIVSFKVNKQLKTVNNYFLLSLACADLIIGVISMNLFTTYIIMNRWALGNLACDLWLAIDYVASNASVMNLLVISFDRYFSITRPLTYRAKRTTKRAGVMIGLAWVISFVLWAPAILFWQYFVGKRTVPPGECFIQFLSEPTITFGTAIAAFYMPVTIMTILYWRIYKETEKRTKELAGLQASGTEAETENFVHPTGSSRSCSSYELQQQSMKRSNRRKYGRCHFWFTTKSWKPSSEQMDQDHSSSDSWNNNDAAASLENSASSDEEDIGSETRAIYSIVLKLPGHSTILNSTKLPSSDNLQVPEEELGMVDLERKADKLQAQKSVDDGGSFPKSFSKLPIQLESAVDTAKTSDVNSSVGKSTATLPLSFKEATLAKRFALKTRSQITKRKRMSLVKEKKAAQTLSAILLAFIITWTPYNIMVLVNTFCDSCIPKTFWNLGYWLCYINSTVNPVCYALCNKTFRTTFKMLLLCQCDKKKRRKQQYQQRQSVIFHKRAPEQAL
In words: Functional mobilization of intracellular calcium (FLIPR), M3-CHO cells. To be noted: for Emax: 100% efficacy = maximum response obtained with the Carbachol control; for M3 Activity: M3-CHO cells, calcium mobilization (FLIPR). In short, it runs like this: as §1

For a further experiment, the target named is T3, M4 muscarinic receptor (Homo sapiens, UniProt P08173).
T3 construct: expressed in transfected cells; host or cells: CHO (M4-CHO)
T3 sequence (P08173 1-479): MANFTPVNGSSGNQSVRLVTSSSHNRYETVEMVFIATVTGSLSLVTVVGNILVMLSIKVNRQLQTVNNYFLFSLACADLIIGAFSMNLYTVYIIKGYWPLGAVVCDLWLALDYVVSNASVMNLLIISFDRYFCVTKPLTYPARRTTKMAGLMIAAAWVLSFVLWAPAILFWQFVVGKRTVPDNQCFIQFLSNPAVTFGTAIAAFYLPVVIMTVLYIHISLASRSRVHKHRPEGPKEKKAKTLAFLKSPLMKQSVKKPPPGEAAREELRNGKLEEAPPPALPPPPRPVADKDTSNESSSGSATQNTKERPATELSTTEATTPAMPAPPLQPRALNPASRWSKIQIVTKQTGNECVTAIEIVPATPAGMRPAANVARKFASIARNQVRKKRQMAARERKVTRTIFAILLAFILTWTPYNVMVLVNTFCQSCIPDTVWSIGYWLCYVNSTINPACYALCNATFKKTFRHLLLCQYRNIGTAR
Description: Functional mobilization of intracellular calcium (FLIPR), M4-CHO cells. To be noted: for Emax: 100% efficacy = maximum response obtained with the Carbachol control; for M4 Activity: M4-CHO cells, calcium mobilization (FLIPR). An outline of the steps:
as §1

For the next experiment, the target named is T4, M1 muscarinic receptor (Homo sapiens, UniProt P11229).
T4 construct: expressed in transfected cells; host or cells: CHO (M1-CHO)
T4 sequence (P11229 1-460): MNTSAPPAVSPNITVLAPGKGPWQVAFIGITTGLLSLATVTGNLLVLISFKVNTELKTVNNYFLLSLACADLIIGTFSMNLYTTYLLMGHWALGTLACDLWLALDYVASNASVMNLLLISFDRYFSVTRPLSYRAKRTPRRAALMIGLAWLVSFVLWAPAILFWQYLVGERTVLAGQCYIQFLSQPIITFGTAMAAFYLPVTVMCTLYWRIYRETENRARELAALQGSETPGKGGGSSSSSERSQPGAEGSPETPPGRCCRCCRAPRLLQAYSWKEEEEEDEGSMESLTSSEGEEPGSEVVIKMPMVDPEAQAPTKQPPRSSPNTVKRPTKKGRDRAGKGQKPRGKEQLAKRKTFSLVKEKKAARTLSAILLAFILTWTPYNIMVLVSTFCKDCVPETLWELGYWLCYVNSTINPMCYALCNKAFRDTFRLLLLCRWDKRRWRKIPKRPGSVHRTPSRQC
Description: Functional mobilization of intracellular calcium (FLIPR), M1-CHO cells. The following applies: for Emax: 100% efficacy = maximum response obtained with the Carbachol control; for M1 Activity: M1-CHO cells, calcium mobilization (FLIPR). An outline of the steps: as §1

One may read the Emax as the size of the effect at its maximum, as opposed to the concentration needed. Consider `COc1ccc(-c2ccc(C#N)cc2)cc1C1CCN(C2CC3CCC(C3)C2)CC1` (stereo not drawn) [Compound 82], for which, on M2 muscarinic receptor, the Emax is under 25% and the “M2 Activity” value is “+ (activity was measured to be greater than 5.0 μM)”. In addition, at M3 muscarinic receptor, the maximal effect (Emax) was under 25% and the “M3 Activity” value is listed as “+ (activity was measured to be greater than 5.0 μM)”. In addition, at M4 muscarinic receptor, the maximum response (Emax) fell in the range of 25 to 100% and the “M4 Activity” value is listed as “+ (activity was measured to be greater than 5.0 μM)”. For the same compound, on M1 muscarinic receptor, the maximal effect (Emax) was 25 to 100% and the “M1 Activity” value is listed as “+ (activity was measured to be greater than 5.0 μM)”.

In the case of `COc1ccc(Cl)cc1C1(F)CCN(C2CCC3CCC2C3)CC1` (stereo not drawn) [Compound 83], on M2 muscarinic receptor, the Emax was 25 to 100% and the “M2 Activity” value is listed as “+ (activity was measured to be greater than 5.0 μM)”. On M3 muscarinic receptor, the Emax is under 25% and the “M3 Activity” value is “+ (activity was measured to be greater than 5.0 μM)”. Besides, at M4 muscarinic receptor, the maximal effect (Emax) is 25 to 100% and the “M4 Activity” value is given as “++ (activity was measured to be from 1.0 μM to 5.0 μM)”. On M1 muscarinic receptor, the Emax is 25 to 100% and the “M1 Activity” value is on record as “+ (activity was measured to be greater than 5.0 μM)”.

`CCNC(=O)c1ccc(-c2ccc(OC)c(C3CCN([C@H]4C[C@H]5CC[C@H]4C5)CC3)c2)cc1` [Compound 84]: at M2 muscarinic receptor, the maximal response (Emax) was under 25% and the “M2 Activity” value is reported as “+ (activity was measured to be greater than 5.0 μM)”. At M3 muscarinic receptor, the maximal response (Emax) was under 25% and the “M3 Activity” value was “+ (activity was measured to be greater than 5.0 μM)”. Moreover, on M4 muscarinic receptor, the maximal effect (Emax) was under 25% and the “M4 Activity” value was “+ (activity was measured to be greater than 5.0 μM)”. Also, at M1 muscarinic receptor, the Emax is under 25% and the “M1 Activity” value is listed as “+ (activity was measured to be greater than 5.0 μM)”.

For `COc1ccccc1C1CCN([C@@H]2C[C@H]3CC[C@H]2C3)CC1` [Compound 85], on M2 muscarinic receptor, the Emax was under 25% and the “M2 Activity” value is on record as “+ (activity was measured to be greater than 5.0 μM)”. In addition, on M3 muscarinic receptor, the Emax is under 25% and the “M3 Activity” value is “+ (activity was measured to be greater than 5.0 μM)”. Moreover, at M4 muscarinic receptor, the Emax lay within 25 to 100% and the “M4 Activity” value was “+++ (activity was measured to be less than 1.0 μM)”. At M1 muscarinic receptor, the maximum response (Emax) was 25 to 100% and the “M1 Activity” value is given as “+ (activity was measured to be greater than 5.0 μM)”.

Consider `Cc1ccccc1C1CCN(C2CC3CCC(C3)C2)CC1` (stereo not drawn) [Compound 86], for which, on M2 muscarinic receptor, the Emax is under 25% and the “M2 Activity” value is “+ (activity was measured to be greater than 5.0 μM)”. Also, on M3 muscarinic receptor, the Emax was under 25% and the “M3 Activity” value is recorded as “+ (activity was measured to be greater than 5.0 μM)”. Besides, on M4 muscarinic receptor, the maximal response (Emax) fell in the range of 25 to 100% and the “M4 Activity” value is recorded as “+++ (activity was measured to be less than 1.0 μM)”. On M1 muscarinic receptor, the maximal response (Emax) lay within 25 to 100% and the “M1 Activity” value is listed as “++ (activity was measured to be from 1.0 μM to 5.0 μM)”.

For the compound `COCCNC(=O)c1ccc(-c2ccc(OC)c(C3CCN([C@H]4C[C@H]5CC[C@H]4C5)CC3)c2)cc1` [Compound 87], on M2 muscarinic receptor, the Emax was under 25% and the “M2 Activity” value is given as “+ (activity was measured to be greater than 5.0 μM)”. For the same compound, at M3 muscarinic receptor, the Emax was under 25% and the “M3 Activity” value is on record as “+ (activity was measured to be greater than 5.0 μM)”. Besides, on M4 muscarinic receptor, the maximum response (Emax) is under 25% and the “M4 Activity” value is on record as “+ (activity was measured to be greater than 5.0 μM)”. Also, on M1 muscarinic receptor, the Emax was under 25% and the “M1 Activity” value is “+ (activity was measured to be greater than 5.0 μM)”.

The values are drawn from US7880007B2, “Bicyclic substituted phenyl piperidine modulators of muscarinic receptors” (Vertex Pharmaceuticals Incorporated, priority 2004, dated 2011).
